Read-outs that look alike come from different tables or passages of the source.
Assays:
[1] = target: T1, ALDH3A1 (Homo sapiens (Human), UniProt P30838)
Description: (§1) The enzymatic activity of ALDH1A1, ALDH2 and ALDH3A1 were measured as described previously^[30,34,37,39].
(§2) All reactions were initiated by the addition of the aldehyde substrate. The inhibition curves were fit to the Logistic four parameter IC50 equation using the SigmaPlot (v11, StatSys). We characterized the mode of inhibition using steady-state kinetics through co-variation of inhibitor and substrate concentrations. The steady state kinetic measurements were performed in 100 mM Na2HPO4 buffer, pH 7.5. […] In all cases—including the control reactions lacking inhibitors, the final reaction mixture contained 2% (v/v) DMSO. The reaction was initiated by addition of substrate and the initial rate of product formation was determined on a Beckman DU-640. All data were fit to the non-linear velocity expressions for competitive, non-competitive, mixed-type non-competitive and uncompetitive inhibition^[40]. Appropriateness of the inhibition model was determined through analysis of goodness-of-fit and the residuals of those fits. Lineweaver-Burke plots were created using SigmaPlot (v11, StatSys) to visualize the inhibition patterns. All data represent the average of three independent experiments utilizing triplicate assays at each concentration point.
(§3) ALDH1A1, ALDH2 and ALDH3A1 activities were measured as described earlier^33,44,45. […] Reaction was initiated by the addition of the aldehyde substrate. […] The inhibition curves were fit to the Logistic four parameter IC50 equation using the SigmaPlot (v11, StatSys). Steady state kinetic experiments were performed by co-varying inhibitor and substrate concentrations. The steady state kinetic measurements were performed in 100 mM Na2HPO4 buffer, pH 7.5.

[2] = target: T1, ALDH3A1; test: biochemical; conditions: for inhibition at 10 µM: read-out: % activity left after treating with 10 micromolar inhibitor ALDH3A1
Description: as §1, §2, §3

[3] = Solubility; type: physicochemical; conditions: for concentration of homogenous solution easily formed: in the presence of […] DMSO
[4] = target: ALDH1A1 (Homo sapiens (Human), UniProt P00352); test: ALDH1A1 dehydrogenase activity / IC50 determination (propionaldehyde substrate); type: biochemical; conditions: for IC50: Table 4, hits from ChemDiv screen, read-out: IC50 (micromolar) ALDH1A1; for inhibitory potential / activity toward ALDH1A1 in vitro (in words): CB29 analogs; for IC50 (micromolar) ALDH1A1: Tables 1A/1B, propionaldehyde substrate, S.D. in parentheses
ALDH1A1, sequence (P00352 whole entry): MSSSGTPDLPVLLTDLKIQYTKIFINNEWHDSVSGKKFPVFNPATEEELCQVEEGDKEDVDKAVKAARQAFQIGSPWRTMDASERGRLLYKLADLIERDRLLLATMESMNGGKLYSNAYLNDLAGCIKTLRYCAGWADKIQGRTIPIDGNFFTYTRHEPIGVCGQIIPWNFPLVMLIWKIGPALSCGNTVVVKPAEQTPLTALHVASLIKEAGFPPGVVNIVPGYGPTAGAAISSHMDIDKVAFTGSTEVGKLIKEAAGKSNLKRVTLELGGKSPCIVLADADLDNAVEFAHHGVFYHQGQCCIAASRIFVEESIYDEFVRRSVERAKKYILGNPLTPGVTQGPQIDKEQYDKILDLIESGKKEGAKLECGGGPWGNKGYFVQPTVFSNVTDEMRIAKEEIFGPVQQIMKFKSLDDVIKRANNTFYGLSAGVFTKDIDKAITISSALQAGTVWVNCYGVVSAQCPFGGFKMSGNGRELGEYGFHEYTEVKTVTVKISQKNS
Description: as §1, §2, §3

[5] = target: ALDH2 (Homo sapiens (Human), UniProt P05091); test: ALDH2 dehydrogenase activity / IC50 determination (propionaldehyde substrate); type: biochemical; conditions: for IC50: Table 4, hits from ChemDiv screen, NI not defined, read-out: IC50 (micromolar) ALDH2; for inhibitory potential toward ALDH2 activity in vitro (in words): CB29 analogs
ALDH2, sequence (P05091 18-517): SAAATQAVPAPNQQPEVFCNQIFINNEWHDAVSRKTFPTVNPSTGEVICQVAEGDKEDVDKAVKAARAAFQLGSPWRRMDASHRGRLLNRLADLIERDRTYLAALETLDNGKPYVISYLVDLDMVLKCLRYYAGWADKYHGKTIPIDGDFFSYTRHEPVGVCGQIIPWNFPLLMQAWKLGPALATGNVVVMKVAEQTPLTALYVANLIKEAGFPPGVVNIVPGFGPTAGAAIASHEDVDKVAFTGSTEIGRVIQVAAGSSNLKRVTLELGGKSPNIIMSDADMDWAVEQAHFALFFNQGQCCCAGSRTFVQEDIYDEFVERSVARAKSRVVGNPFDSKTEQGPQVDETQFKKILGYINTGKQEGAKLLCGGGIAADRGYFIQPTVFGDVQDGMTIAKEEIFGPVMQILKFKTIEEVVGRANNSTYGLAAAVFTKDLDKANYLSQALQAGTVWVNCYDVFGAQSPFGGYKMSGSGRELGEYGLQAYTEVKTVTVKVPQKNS
Description: The enzymatic activity of ALDH1A1, ALDH2 and ALDH3A1 were measured as described previously^[30,34,37,39]. The specific activities of the purified proteins were 1.9, 3.8 and 32 μmole/min/mg for ALDH1A1, ALDH2 and ALDH3A1 respectively.
as §2, §3

[6] = test system: SF767 cells; test: MTT assay for cell proliferation / mafosfamide sensitivity, SF767; type: cell-based; conditions: for sensitivity to mafosfamide on co-treatment (in words), SF767: 50 μM inhibitor + […] mafosfamide; for sensitivity to mafosfamide on co-treatment (in words), SF767 / effect on cell proliferation as single agent (in words), SF767: FIG. 4B; for effect on cell proliferation as single agent (in words), SF767: 50 μM inhibitor; for chemosensitivity to mafosfamide (in words), SF767: 10 μM inhibitor + mafosfamide
[7] = test system: A549 cells; test: MTT assay for cell proliferation / mafosfamide sensitivity, A549; type: cell-based; conditions: FIG. 4A; for sensitivity to mafosfamide on co-treatment (in words), A549: 50 μM inhibitor + mafosfamide; for effect on cell proliferation as single agent (in words), A549: 50 μM inhibitor
[8] = read-out: ALDH3A1 IC50 (micromolar), Table 4(B), hits from ChemBridge screen
[9] = read-out: IC50 (micromolar) ALDH3A1, Table 4, hits from ChemDiv screen
[10] = read-out: IC50 (micromolar) ALDH3A1, Tables 1A/1B, benzaldehyde substrate, S.D. for three assays in parentheses
[11] = read-out: IC50 against ALDH3A1, benzaldehyde substrate

T1 sequence (P30838 whole entry): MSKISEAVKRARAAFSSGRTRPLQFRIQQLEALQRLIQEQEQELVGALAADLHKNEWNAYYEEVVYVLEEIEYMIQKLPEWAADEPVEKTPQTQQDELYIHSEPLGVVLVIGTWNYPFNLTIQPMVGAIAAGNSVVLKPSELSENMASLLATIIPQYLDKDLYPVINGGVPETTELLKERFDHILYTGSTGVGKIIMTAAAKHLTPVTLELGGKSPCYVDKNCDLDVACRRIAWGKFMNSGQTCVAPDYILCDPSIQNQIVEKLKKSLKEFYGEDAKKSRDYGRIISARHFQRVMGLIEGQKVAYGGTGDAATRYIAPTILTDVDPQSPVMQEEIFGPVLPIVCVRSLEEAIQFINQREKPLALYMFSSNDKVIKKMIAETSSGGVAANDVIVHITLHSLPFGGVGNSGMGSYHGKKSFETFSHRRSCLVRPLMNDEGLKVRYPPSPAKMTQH

## N#CSCCCCOc1ccc(Cl)cc1 [CB1]
[1]; [8]
  IC50: 3.7 µM

## O=[N+](O)c1ccccc1CNc1ccc(F)c(F)c1 [CB2]
[1]; [8]
  IC50: 5.2 µM

## Cc1cc(OCC(=O)O)c([N+](=O)O)cc1Cl [CB3]
[2]
  inhibition at 10 µM: 55%

## Cc1cc(C2CNc3ccccc32)oc(=O)c1 (stereo not drawn) [CB4]
[2]
  inhibition at 10 µM: 60%

## Nc1ccc(-c2cc(C(=O)O)c3ccccc3n2)cc1 [CB5]
[2]
  inhibition at 10 µM: 34%

## N#CSC1CN=C(NC2CCCCC2)S1 (stereo not drawn) [CB6]
[2]
  inhibition at 10 µM: 6%

## Cc1nc2ccccc2n1S(=O)(=O)c1ccc(F)cc1 [CB7, 1-[(4-fluorophenyl)sulfonyl]-2-methyl-1H-benzimidazole]
[3]
  solubility (in words): very good solubility

## N#CC(Cc1ccc(S(=O)(=O)c2ccc(Cl)cc2)cc1)c1nc2ccccc2[nH]1 (stereo not drawn) [CB10]
[2]
  inhibition at 10 µM: 58%

## OCCCn1c(-c2ccc(Cl)cc2)cn2c3ccccc3nc12 [CB11]
[2]
  inhibition at 10 µM: 61%

## CCN(CC)CCC(=O)c1ccc2c(c1)OCO2 [CB12]
[1]; [8]
  IC50: 3.2 µM

## O=C(CCN1CCOCC1)c1ccc2c(c1)OCCO2 [CB13]
[1]; [8]
  IC50: 11.7 µM

## O=[N+]([O-])c1ccc(N2CCCC2)c(F)c1 [CB14]
[2]
  inhibition at 10 µM: 47%

## CCNC(=O)CC1Nc2cc(C)c(C)cc2NC1=O (stereo not drawn) [CB16]
[2]
  inhibition at 10 µM: 50%

## CN(CC(=O)[O-])c1nc2ccc([N+](=O)O)cc2s1 [CB21]
[2]
  inhibition at 10 µM: 58%

## O=C(CSc1ccccc1)NCc1ccco1 [CB23]
[2]
  inhibition at 10 µM: 65%

## CCOc1cc(/C=C/[N+](=O)O)ccc1O [CB26]
[2]
  inhibition at 10 µM: 45%

## c1ccc(CNc2nc(-c3ccccn3)cs2)cc1 [CB27]
[2]
  inhibition at 10 µM: 43%

## O=C(O)CCc1ccc(-c2ccc(F)cc2)o1 [CB32]
[2]
  inhibition at 10 µM: 36%

## C=CCOc1ccc(/C=C/[N+](=O)O)cc1OC [CB35]
[2]
  inhibition at 10 µM: 46%

## C#CCOc1ccc(/C=C/[N+](=O)O)cc1 [CB36]
[2]
  inhibition at 10 µM: 30%

## Cc1ccc(/C=C/[N+](=O)O)cc1Br [CB37]
[2]
  inhibition at 10 µM: 30%

## COc1ccc(/C=C/[N+](=O)O)cc1Br [CB38]
[2]
  inhibition at 10 µM: 40%

## Cc1ccc(-c2ccc(/C=C/[N+](=O)O)o2)c(Br)c1 [CB39]
[2]
  inhibition at 10 µM: 32%

## COc1ccc(/C=C/[N+](=O)O)cc1I [CB40]
[2]
  inhibition at 10 µM: 30%

## CN(C)c1ccc(/C=C/[N+](=O)O)cc1Br [CB41]
[2]
  inhibition at 10 µM: 45%

## C#CCOc1c(Cl)cc(/C=C/[N+](=O)O)cc1OC [CB42]
[2]
  inhibition at 10 µM: 46%

## O=C1Nc2ccccc2C12Oc1ccccc1C1CC(c3ccccc3)=NN12 (stereo not drawn) [CD3]
[1]; [9]
  IC50: 38.5 µM
[4]
  IC50: 6.5 µM
[5]
  IC50: 41.8 µM

## CCCSc1nnc2c(n1)OC(C(=O)c1ccc(OC)cc1)Nc1ccccc1-2 (stereo not drawn) [CD4]
[1]; [9]
  IC50: 2.5 µM
[4]
  IC50: 21.2 µM
[5]
  IC50: 1.4 µM

## CCSc1nnc2c(n1)OC(C(=O)c1ccc(OC)cc1)Nc1ccccc1-2 (stereo not drawn) [CD5]
[1]; [9]
  IC50: 1.5 µM
[4]
  IC50: 8.2 µM
[5]
  IC50: 1.2 µM

## CCOC(=O)CN1C(=O)C(O)(CC(=O)c2ccccn2)c2ccccc21 (stereo not drawn) [CD7]
[1]; [9]
  IC50: 25.5 µM
[4]
  IC50: 0.7 µM

## CCOC(=O)CN1C(=O)C(O)(CC(=O)c2ccncc2)c2ccccc21 (stereo not drawn) [CD8]
[1]; [9]
  IC50: 6.3 µM
[4]
  IC50: 0.8 µM
[5]
  IC50: 11.1 µM

## Cc1ccc(S(=O)(=O)NC(O)C(=O)c2cccs2)cc1 (stereo not drawn) [CD10]
[1]; [9]
  IC50: 3.4 µM
[4]
  IC50: 4 µM
[5]
  IC50: 2.2 µM

## O=C(NC(O)C(=O)c1cccs1)c1cccnc1 (stereo not drawn) [CD11]
[1]; [9]
  IC50: 10.2 µM
[4]
  IC50: 5.9 µM
[5]
  IC50: 6.5 µM

## O=C(NC(O)C(=O)c1cccs1)c1ccncc1 (stereo not drawn) [CD12]
[1]; [9]
  IC50: 5.6 µM
[4]
  IC50: 4.2 µM
[5]
  IC50: 5.3 µM

## CCn1c(-c2ccc(OC)c(F)c2)cs/c1=N/c1ccccc1 [CD13]
[1]; [9]
  IC50: 60 µM
[4]
  IC50: 6.3 µM
[5]
  IC50: 7.3 µM

## CCCC1C(C#N)=C(SCC(=O)c2ccc(Br)cc2)NC(C)=C1C(C)=O (stereo not drawn) [CD14]
[1]; [9]
  IC50: 71.5 µM
[4]
  IC50: 10.4 µM
[5]
  IC50: 13.7 µM

## Cc1cccc(C(=O)CN2CCN(S(=O)(=O)c3cc(Cl)ccc3Cl)CC2)c1 [CD20]
[1]; [9]
  IC50: 41 µM
[4]
  IC50: 33 µM

## CNS(=O)(=O)c1ccc(Nc2ccc(F)cc2)c([N+](=O)[O-])c1 [Compound 2]
[1]; [10]
  IC50: 26 µM
[1]; [11]
  IC50: 26 µM
[3]
  concentration of homogenous solution easily formed: ≥ 100 µM
[4]
  inhibitory potential / activity toward ALDH1A1 in vitro (in words): no inhibitory potential
[5]
  inhibitory potential toward ALDH2 activity in vitro (in words): no inhibitory potential
[6]
  sensitivity to mafosfamide on co-treatment (in words), SF767: increased sensitivity to mafosfamide
  effect on cell proliferation as single agent (in words), SF767: little effect on cell proliferation
[7]
  sensitivity to mafosfamide on co-treatment (in words), A549: increased sensitivity to mafosfamide
  effect on cell proliferation as single agent (in words), A549: little effect on cell proliferation

## Cc1ccc(C)c(Nc2ccc(S(C)(=O)=O)cc2[N+](=O)[O-])c1 [Compound 7]
[4]
  IC50 (micromolar) ALDH1A1: WA (WA represents (30-50) % activation shown by 100 μM compound to respective enzymes)

## Cc1ccc(Nc2ccc(S(C)(=O)=O)cc2[N+](=O)[O-])cc1F [Compound 8]
[1]; [10]
  IC50: 10.8 µM
[3]
  concentration of homogenous solution easily formed: ≥ 100 µM
[4]
  inhibitory potential / activity toward ALDH1A1 in vitro (in words): no inhibitory potential
  IC50 (micromolar) ALDH1A1: WA (WA represents (30-50) % activation shown by 100 μM compound to respective enzymes)
[2]
  IC50: 10 µM
[5]
  inhibitory potential toward ALDH2 activity in vitro (in words): no inhibitory potential
[6]
  sensitivity to mafosfamide on co-treatment (in words), SF767: increased sensitivity to mafosfamide
  effect on cell proliferation as single agent (in words), SF767: little effect on cell proliferation
[7]
  sensitivity to mafosfamide on co-treatment (in words), A549: increased sensitivity to mafosfamide
  effect on cell proliferation as single agent (in words), A549: little effect on cell proliferation

## CNS(=O)(=O)c1ccc(Nc2ccc(OC)cc2)c([N+](=O)[O-])c1 [Compound 10]
[1]; [10]
  IC50: 31.7 µM
[1]; [11]
  IC50: 31 µM
[3]
  concentration of homogenous solution easily formed: ≥ 100 µM
[4]
  inhibitory potential / activity toward ALDH1A1 in vitro (in words): no inhibitory potential
[5]
  inhibitory potential toward ALDH2 activity in vitro (in words): no inhibitory potential
[6]
  effect on cell proliferation as single agent (in words), SF767: little effect on cell proliferation
[7]
  effect on cell proliferation as single agent (in words), A549: little effect on cell proliferation

## CNS(=O)(=O)c1ccc(Nc2ccc(OC(F)F)cc2)c([N+](=O)[O-])c1 [Compound 11]
[1]; [10]
  IC50: 24.7 µM
[1]; [11]
  IC50: 24 µM
[3]
  concentration of homogenous solution easily formed: ≥ 100 µM
[4]
  inhibitory potential / activity toward ALDH1A1 in vitro (in words): no inhibitory potential
[5]
  inhibitory potential toward ALDH2 activity in vitro (in words): no inhibitory potential
[6]
  sensitivity to mafosfamide on co-treatment (in words), SF767: increased sensitivity to mafosfamide
  effect on cell proliferation as single agent (in words), SF767: little effect on cell proliferation
[7]
  sensitivity to mafosfamide on co-treatment (in words), A549: increased sensitivity to mafosfamide
  effect on cell proliferation as single agent (in words), A549: little effect on cell proliferation

## Cc1nc2ccccc2n1S(=O)(=O)c1ccc(Cl)cc1 [Compound A20]
[6]
  chemosensitivity to mafosfamide (in words), SF767: significantly increased chemosensitivity

## O=S(=O)(c1ccc(Cl)cc1)n1cnc2ccccc21 [Compound A21]
[6]
  chemosensitivity to mafosfamide (in words), SF767: significantly increased chemosensitivity

## CC(=O)c1nc2ccccc2n1S(=O)(=O)c1ccc(Cl)cc1 [Compound B37]
[6]
  chemosensitivity to mafosfamide (in words), SF767: significantly increased chemosensitivity

Source: patent US9320722B2, “Regulators of aldehyde dehydrogenase ALDH3A1 and related therapeutic methods” (Indiana University Research and Technology Corporation, priority 2013, dated 2016)
